Results: patent publication US5110796A, “Prophylactic and therapeutic agents for cataracts” (priority 1988, dated 1992)
Structures can show the parent of a compound that is named as a salt.

Key:
X-ray induced cataracts = tested on: X-ray induced cataracts
Method: Four-week old SLC Wistar rats are divided into three groups having ten animals in each group; the first group is a normal control group. The second group is an X-ray irradiated control group which is administered intraperitoneally 1 ml/kg of physiological saline solution three times a week after X-ray irradiation. For the third group, 20 mg/kg of glutathione monoisopropyl ester sulfate is administered intraperitoneally three times a week after X-ray irradiation. X-ray irradiation is carried out by irradiating the cephalic portion of conscious rats at 1,000 rad.
After X-ray irradiation, the lens are monitored every two weeks for opacity with a slit lamp. […] When the conditions of lens of the X-ray irradiated control group (the second group) reaches level IV or more (at 28 weeks), the tests are finished. Then the lens are extracted and measured for biochemical parameters [amounts of nonprotein-SH (Ellman's method), amounts of Na^+ /K^+ and Ca^++ (Atomic absorption method)].

mice = details: intraperitoneal injection to mice

## CC(C)OC(=O)CNC(=O)[C@H](CS)NC(=O)CC[C@H](N)C(=O)O [glutathione monoisopropyl ester sulfate, isopropylγ-L-glutamyl-L-cysteinylglycinate]
X-ray induced cataracts; 20 mg/kg i.p. three times a week after 1,000 rad X-ray irradiation, 28 weeks, in the X-ray irradiated control the V grade is greater than 50%
  share of the group with II grade lens score (seven grades I to VII, clear to opacitas): greater than 50%
X-ray induced cataracts; 20 mg/kg i.p. three times a week after X-ray irradiation, rats
  inhibiting action of cataracts: outstanding inhibiting action of cataracts
mice
  acute toxicity (LD50): approximately 5.3 g/kg
